Biological target: JAK1 (Homo sapiens (Human), UniProt P23458)
Assay: Analysis of JAK1 activity inhibition ability (ADP-Glo Kinase Assay)
Type: biochemical
Details: JAK1 enzyme, ADP-Glo luminescence, ATP 250 uM, IRS-itide substrate, 30° C. 40 minutes; read-out: IC50
How it was run: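 JAK1 enzyme, IRS-itide substrate (40 ng/mL) and 250 uM ATP, both as prepared in kinase buffer (Tris-HCl pH 7.5, MgCl2, BSA, DTT), reacted with compound 40 min at 30 °C. ADP formed was detected by ADP-Glo luminescence; IC50 is the concentration giving 50% inhibition versus control.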

Sequence of JAK1 (P23458 whole entry): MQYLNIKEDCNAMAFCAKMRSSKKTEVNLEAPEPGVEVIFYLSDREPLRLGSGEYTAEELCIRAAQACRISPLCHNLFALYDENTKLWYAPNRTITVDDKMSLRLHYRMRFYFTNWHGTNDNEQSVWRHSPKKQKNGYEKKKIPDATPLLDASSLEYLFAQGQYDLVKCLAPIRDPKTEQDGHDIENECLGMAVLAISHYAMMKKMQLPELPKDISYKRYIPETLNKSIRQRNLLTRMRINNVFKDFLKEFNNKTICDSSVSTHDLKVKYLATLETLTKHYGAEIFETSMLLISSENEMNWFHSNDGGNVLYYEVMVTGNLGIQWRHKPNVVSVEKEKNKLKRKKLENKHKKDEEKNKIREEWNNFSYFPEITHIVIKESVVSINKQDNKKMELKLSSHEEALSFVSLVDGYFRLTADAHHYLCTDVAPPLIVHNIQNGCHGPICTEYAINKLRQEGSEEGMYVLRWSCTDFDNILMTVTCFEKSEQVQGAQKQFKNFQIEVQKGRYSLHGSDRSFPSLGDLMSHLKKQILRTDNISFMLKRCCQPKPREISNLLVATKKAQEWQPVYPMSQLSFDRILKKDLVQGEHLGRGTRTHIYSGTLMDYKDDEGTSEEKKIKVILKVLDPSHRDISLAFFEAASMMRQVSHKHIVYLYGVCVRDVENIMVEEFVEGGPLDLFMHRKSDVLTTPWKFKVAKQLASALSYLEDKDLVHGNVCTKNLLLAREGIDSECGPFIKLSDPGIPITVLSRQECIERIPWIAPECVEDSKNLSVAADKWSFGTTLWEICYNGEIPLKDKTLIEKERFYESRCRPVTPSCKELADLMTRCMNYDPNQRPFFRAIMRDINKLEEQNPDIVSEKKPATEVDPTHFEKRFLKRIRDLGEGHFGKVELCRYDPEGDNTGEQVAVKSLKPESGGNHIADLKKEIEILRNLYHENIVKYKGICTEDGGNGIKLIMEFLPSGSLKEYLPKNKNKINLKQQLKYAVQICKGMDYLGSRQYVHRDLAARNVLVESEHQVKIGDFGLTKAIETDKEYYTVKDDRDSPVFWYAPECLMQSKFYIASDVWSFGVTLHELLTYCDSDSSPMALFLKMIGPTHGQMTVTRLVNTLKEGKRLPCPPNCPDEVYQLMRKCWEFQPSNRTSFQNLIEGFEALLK

IC50	SMILES
20 to 200 nM	CC1(C)CC(c2cc(NC(=O)C3CC3)nc3[nH]ccc23)=CCN1C(=O)CC#N [Example 387, N-(4-(1-(2-cyanoacetyl)-2,2-dimethyl-1,2,3,6-tetrahydropyridin-4-yl)-1H-pyrrolo[2,3-b]pyridin-6-yl)cyclopropanecarboxamide]
< 20 nM	C[C@@H]1C=C(c2cc(NC(=O)C3CC3)nc3[nH]ccc23)CCN1C(=O)CC#N [Example 388, (R)—N-(4-(1-(2-cyanoacetyl)-6-methyl-1,2,3,6-tetrahydropyridin-4-yl)-1H-pyrrolo[2,3-b]pyridin-6-yl)cyclopropanecarboxamide]
< 20 nM	C[C@@H]1CC(c2cc(NC(=O)C3CC3)nc3[nH]ccc23)=CCN1C(=O)CC#N [Example 389, (R)—N-(4-(1-(2-cyanoacetyl)-2-methyl-1,2,3,6-tetrahydropyridin-4-yl)-1H-pyrrolo[2,3-b]pyridin-6-yl)cyclopropanecarboxamide]
< 20 nM	C[C@H]1C=C(c2cc(NC(=O)C3CC3)nc3[nH]ccc23)CCN1C(=O)CC#N [Example 390, (S)—N-(4-(1-(2-cyanoacetyl)-6-methyl-1,2,3,6-tetrahydropyridin-4-yl)-1H-pyrrolo[2,3-b]pyridin-6-yl)cyclopropanecarboxamide]

More lines, now with the values behind:

SMILES	IC50
Cc1cc(C(=O)N2CC=C(c3cc(NC(=O)C4CC4)nc4[nH]ccc34)C(C)C2)ccn1 (stereo not drawn) [Example 379, N-(4-(3-methyl-1-(2-methylisonicotinoyl)-1,2,3,6-tetrahydropyridin-4-yl)-1H-pyrrolo[2,3-b]pyridin-6-yl)cyclopropanecarboxamide]	20 to 200 nM
COc1ccc(C(=O)N2CC=C(c3cc(NC(=O)C4CC4)nc4[nH]ccc34)C(C)C2)cn1 (stereo not drawn) [Example 380, N-(4-(1-(6-methoxynicotinoyl)-3-methyl-1,2,3,6-tetrahydropyridin-4-yl)-1H-pyrrolo[2,3-b]pyridin-6-yl)cyclopropanecarboxamide]	20 to 200 nM
CC1CN(C(=O)c2ccnc(N)c2)CC=C1c1cc(NC(=O)C2CC2)nc2[nH]ccc12 (stereo not drawn) [Example 381, N-(4-(1-(2-aminoisonicotinoyl)-3-methyl-1,2,3,6-tetrahydropyridin-4-yl)-1H-pyrrolo[2,3-b]pyridin-6-yl)cyclopropanecarboxamide]	> 200 nM
CC1CN(C(=O)c2ccnc(Br)c2)CC=C1c1cc(NC(=O)C2CC2)nc2[nH]ccc12 (stereo not drawn) [Example 382, N-(4-(1-(2-bromoisonicotinoyl)-3-methyl-1,2,3,6-tetrahydropyridin-4-yl)-1H-pyrrolo[2,3-b]pyridin-6-yl)cyclopropanecarboxamide]	20 to 200 nM
CC1CN(C(=O)c2ccnc(O)c2)CC=C1c1cc(NC(=O)C2CC2)nc2[nH]ccc12 (stereo not drawn) [Example 383, N-(4-(1-(2-hydroxyisonicotinoyl)-3-methyl-1,2,3,6-tetrahydropyridin-4-yl)-1H-pyrrolo[2,3-b]pyridin-6-yl)cyclopropanecarboxamide]	> 200 nM
CC1CN(C(=O)c2ccnc(C(F)(F)F)c2)CC=C1c1cc(NC(=O)C2CC2)nc2[nH]ccc12 (stereo not drawn) [Example 384, N-(4-(3-methyl-1-(2-(trifluoromethyl)isonicotinoyl)-1,2,3,6-tetrahydropyridin-4-yl)-1H-pyrrolo[2,3-b]pyridin-6-yl)cyclopropanecarboxamide]	20 to 200 nM
CC1(C)CC(c2cc(NC(=O)C3CC3)nc3[nH]ccc23)=CCN1C(=O)c1ccnc(F)c1 [Example 385, N-(4-(1-(2-fluoroisonicotinoyl)-2,2-dimethyl-1,2,3,6-tetrahydropyridin-4-yl)-1H-pyrrolo[2,3-b]pyridin-6-yl)cyclopropanecarboxamide]	< 20 nM
CC1(C)CC(c2cc(NC(=O)C3CC3)nc3[nH]ccc23)=CCN1C(=O)c1ccnc(Cl)c1 [Example 386, N-(4-(1-(2-chloroisonicotinoyl)-2,2-dimethyl-1,2,3,6-tetrahydropyridin-4-yl)-1H-pyrrolo[2,3-b]pyridin-6-yl)cyclopropanecarboxamide]	20 to 200 nM
